Test results: US6472413B2, “Heteroarylacryloylaminoalkyl-substituted benzenesulfonamide derivatives, their preparation, their use and pharmaceutical preparations comprising them” (Adventis Pharma Deutschland GmbH, priority 2000, dated 2002)

Assays:
[1] = target: hSUR1/hKir6.2 (Homo sapiens, UniProt Q09428+Q14654); test: Action on hSUR1/hKir6.2-transfected CHO cells (hypoglycemic action), membrane potential by DIBAC4 fluorescence (FLIPR); assay type: cell-based; details: concentration 10 μM; CHO cells activated with diaxozide; mean of at least 4 experiments
Source text: Action on hSUR1/hKir6.2-transfected CHO Cells (Hypoglycemic Action)
The target organ of these compounds is the β cell of the pancreas where they block ATP-sensitive potassium channels and produce a release of the hypoglycemic hormone insulin by influencing the electrical potential of the cell membrane.
The extent of this depolarization of the cell membrane, which is caused by the compounds according to the invention, was investigated on CHO cells that were transfected with the cloned components of human pancreatic ATP-sensitive potassium channels, hSUR1, and hKir6.2, and activated by pretreatment with diaxozide, an opener of ATP-sensitive potassium channels. The potency of a compound with respect to the membrane potential of these transfected and activated CHO cells is a measure of the hypoglycemic potential of this compound.
On the day of measurement, the microtiter plates were washed three times with PBS (physiological buffer solution). In the last washing step, 90 μl remained in each well. The cells were then loaded with the fluorescent dye DIBAC4 (Molecular Probes, Portland, Oreg., USA) by addition of 90 μl of a 10-micromolar solution of DIBAC4 in PBS and of 90 μl of a 400 micromolar solution of diaxozide in PBS to each well. After an incubation time of 30 min at 37° C., the microtiter plates were then transferred to a fluorescent microtiter plate reader (FLIPR; Molecular Devices, Sunnyvale, Calif., USA). The cells were stimulated by means of an argon laser (Innova 90; Coherent, Santa Clara, Calif., USA) at a wavelength of 488 nm and the fluorescence emission was measured by means of a CCD camera. The measurement of the membrane potential began after 4 min by addition of 20 μl of a solution of the test compound or of the control solution to each well, the resulting fluorescence emission being measured every 20 seconds for a period of 20 min. The data shown are mean values of at least 4 experiments.

[2] = test system: papillary muscle of the guinea pig; test: Action potential duration on the papillary muscle of the guinea pig (relengthening of hypoxia-shortened APD90); assay type: cell-based; details: concentration 2 μM, 60 min after addition, percentage in relation to the shortening caused by hypoxia
Source text: Action Potential Duration on the Papillary Muscle of the Guinea Pig
ATP deficiency states, observed during ischemia in the cardiac muscle cell, lead to a shortening of the action potential duration (ATP=adenosine triphosphate). They are regarded as one of the causes of so-called reentry arrhythmias, which can cause sudden cardiac death. The opening of ATP-sensitive potassium channels by the lowering of the ATP level is regarded as the cause of this. For the measurement of the action potential on the papillary muscle of the guinea pig a standard microelectrode technique was employed.
Guinea pigs of both sexes were killed by a blow to the head, the hearts were removed, and the papillary muscles were separated out and suspended in an organ bath. The organ bath was rinsed with Ringer's solution (136 mmol/l of NaCl, 3.3 mmol/l of KCl, 2.5 mmol/l of CaCl2, 1.2 mmol/l of KH2PO4, 1.1 mmol/l of MgSO4, 5.0 mmol/l of glucose, 10.0 mmol/l of 1-(2-hydroxyethyl)piperazine-4-(2-ethanesulfonic acid) (HEPES), pH adjusted to 7.4 with NaOH) and aerated with 100% oxygen at a temperature of 37° C. The muscle was stimulated with square-wave pulses of 1 V and 1 ms duration and a frequency of 1 Hz by means of an electrode. The action potential was derived and recorded by means of a glass microelectrode inserted intracellularly, which was filled with 3 mol/l of KCl solution. The compound to be tested was added to the Ringer's solution in a concentration of 2 μmol/l. The action potential was amplified using an amplifier from Hugo Sachs (March-Hugstetten, Germany) and stored and analyzed by means of a computer. The duration of the action potential was determined at a degree of repolarization of 90% (APD90). After an equilibration time of 30 min, the action potential shortening was produced by rinsing the papillary muscle with a hypoxic NaCl solution. The glucose was removed here, the HEPES buffer replaced by PIPES buffer (piperazine-1,4-bis(2-ethanesulfonic acid)), the pH was adjusted to 6.5, and the aeration was carried out using 100% nitrogen. After a time of 60 min, this led to a marked shortening of the APD90. After this time, the test compound was added and the relengthening of the action potential recorded after a further 60 min. The compound-caused relengthening of the APD90 was calculated as a percentage, in relation to the shortening caused by hypoxia. The test compounds were added to the bath solution as stock solution in propanediol.
The following relengthenings of the APD90 values were observed.

[3] = test system: chloroform-induced ventricular fibrillation in the mouse; test: Chloroform-induced ventricular fibrillation in the mouse (action in the case of vagal dysfunction); assay type: in vivo; details: 3 mg/kg i.p., 30 min before chloroform anesthesia, percentage of mice with ventricular fibrillation, untreated control 100%
Source text: Chloroform-induced Ventricular Fibrillation in the Mouse (Action in the Case of Vagal Dysfunction)
Hypoactivity of the vagal nervous system leads to hyperactivity of the sympathetic nervous system. Damages to health that result from an inequilibrium of the autonomic nervous system when the dysfunction affects the heart include the weakening of the myocardial contractile force and fatal cardiac arrhythmias such as ventricular fibrillation. The action of the test compounds was investigated in the model of chloroform-induced ventricular fibrillation in the mouse (see J. W. Lawson, Antiarrhythmic activity of some isoquinoline derivatives determined by a rapid screening procedure in the mouse; J. Pharmacol. Exp. Ther. 160 (1968) 22).
The test compound was dissolved in a mixture of dimethyl sulfoxide (DMSO) and 10 percent sodium hydrogencarbonate solution and administered intraperitoneally (i.p.). The dose was 3 mg/kg. 30 min later, the mouse was anesthetized with chloroform in a beaker. As soon as respiratory arrest had occurred under deep anesthesia (toxic stage of anesthesia), the thorax of the animal was opened using a pair of scissors and the heartbeat was visually inspected. It can be determined here at a glance whether the heart is beating, fibrillating, or has stopped. The respiratory arrest induced by chloroform leads, via an absolute anoxia (oxygen deficiency) in combination with a direct stimulating action of chloroform on the sympathetic nervous system, to a strong stimulation of the sympathetic nervous system, which in turn, and in combination with the energy deficiency caused by oxygen deficiency, leads in the heart to the fatal arrhythmia, ventricular fibrillation. This toxic chloroform anesthesia led to ventricular fibrillation in 100% of the untreated mice (control). The percentage proportion of the mice with ventricular fibrillation in the individual test groups (consisting of n animals) is indicated as the fibrillation ratio.
The following fibrillation ratios were observed.

Sequence of hSUR1/hKir6.2 (Q09428 whole entry): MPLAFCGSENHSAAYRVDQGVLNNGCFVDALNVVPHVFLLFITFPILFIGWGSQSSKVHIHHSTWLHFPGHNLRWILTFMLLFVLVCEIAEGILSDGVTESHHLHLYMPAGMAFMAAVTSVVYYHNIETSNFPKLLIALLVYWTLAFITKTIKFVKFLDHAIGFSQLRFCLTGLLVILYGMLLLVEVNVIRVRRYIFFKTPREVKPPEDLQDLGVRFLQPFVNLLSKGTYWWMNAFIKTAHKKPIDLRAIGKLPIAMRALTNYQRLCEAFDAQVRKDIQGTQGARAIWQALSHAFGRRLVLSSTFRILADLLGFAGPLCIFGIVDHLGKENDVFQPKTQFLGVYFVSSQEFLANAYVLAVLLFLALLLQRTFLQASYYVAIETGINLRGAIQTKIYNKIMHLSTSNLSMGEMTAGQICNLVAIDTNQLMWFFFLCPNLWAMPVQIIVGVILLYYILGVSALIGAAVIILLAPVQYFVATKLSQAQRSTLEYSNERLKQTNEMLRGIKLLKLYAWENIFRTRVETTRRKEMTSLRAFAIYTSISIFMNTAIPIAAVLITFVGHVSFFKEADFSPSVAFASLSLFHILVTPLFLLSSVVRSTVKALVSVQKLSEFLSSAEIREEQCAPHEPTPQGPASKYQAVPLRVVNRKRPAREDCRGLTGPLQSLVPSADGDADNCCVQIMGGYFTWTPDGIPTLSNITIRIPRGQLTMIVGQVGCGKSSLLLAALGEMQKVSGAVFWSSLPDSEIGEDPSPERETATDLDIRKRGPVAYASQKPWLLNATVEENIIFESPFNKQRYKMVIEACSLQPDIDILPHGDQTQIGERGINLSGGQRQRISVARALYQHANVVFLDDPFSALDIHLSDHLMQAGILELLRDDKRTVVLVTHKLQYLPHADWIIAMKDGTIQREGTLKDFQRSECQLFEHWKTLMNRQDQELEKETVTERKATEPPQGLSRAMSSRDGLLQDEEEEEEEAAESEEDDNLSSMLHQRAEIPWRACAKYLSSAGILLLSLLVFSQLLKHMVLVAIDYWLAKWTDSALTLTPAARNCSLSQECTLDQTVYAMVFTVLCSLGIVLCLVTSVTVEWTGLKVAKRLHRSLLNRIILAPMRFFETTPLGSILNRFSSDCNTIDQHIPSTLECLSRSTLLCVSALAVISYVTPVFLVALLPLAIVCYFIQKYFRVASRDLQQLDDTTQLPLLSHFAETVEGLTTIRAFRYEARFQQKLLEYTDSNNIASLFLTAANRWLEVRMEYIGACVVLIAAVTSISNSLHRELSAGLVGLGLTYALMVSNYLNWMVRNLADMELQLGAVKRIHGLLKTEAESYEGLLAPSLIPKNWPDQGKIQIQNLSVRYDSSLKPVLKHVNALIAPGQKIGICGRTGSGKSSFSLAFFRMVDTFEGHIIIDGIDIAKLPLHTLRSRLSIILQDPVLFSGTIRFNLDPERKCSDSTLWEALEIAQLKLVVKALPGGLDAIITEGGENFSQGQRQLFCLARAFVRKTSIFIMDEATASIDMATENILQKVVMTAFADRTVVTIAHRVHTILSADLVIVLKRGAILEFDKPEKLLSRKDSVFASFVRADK
Sequence of hSUR1/hKir6.2 (Q14654 whole entry): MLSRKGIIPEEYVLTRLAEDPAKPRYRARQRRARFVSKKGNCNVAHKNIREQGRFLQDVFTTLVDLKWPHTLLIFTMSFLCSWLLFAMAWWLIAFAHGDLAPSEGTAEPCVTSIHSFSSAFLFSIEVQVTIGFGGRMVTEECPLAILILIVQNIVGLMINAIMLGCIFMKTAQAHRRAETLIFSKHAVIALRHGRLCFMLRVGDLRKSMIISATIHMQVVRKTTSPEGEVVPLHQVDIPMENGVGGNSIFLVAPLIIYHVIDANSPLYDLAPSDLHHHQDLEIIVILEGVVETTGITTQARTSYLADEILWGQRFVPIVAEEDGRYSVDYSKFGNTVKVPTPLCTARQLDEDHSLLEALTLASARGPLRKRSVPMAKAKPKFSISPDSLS

SMILES | Blockade hSUR1/hKiR6.2 [1] [%] | Relengthening of the APD90 shortened by hypoxia [2] [%] | Fibrillation ratio (in %) [3] [%] | melting point [°C]
CNC(=S)NS(=O)(=O)c1cc(CCNC(=O)/C=C/c2cccs2)ccc1OC [Example 1, 1-[5-(2-(trans-3-(2-Thienyl)acryloylamino)ethyl)-2-methoxyphenylsulfonyl]-3-methyl-thiourea] | 30.7 | 33 | – | –
CNC(=O)NS(=O)(=O)c1cc(CCNC(=O)/C=C/c2cccs2)ccc1OC [Example 3, 1-[5-(2-(trans-3-(2-Thienyl)acryloylamino)ethyl)-2-methoxyphenylsulfonyl]-3-methyl-urea] | 1.7 | – | 65 | –
COc1ccc(CCNC(=O)/C=C/c2cccs2)cc1S(=O)(=O)NC(=S)NC(C)C [Example 5, 1-[5-(2-(trans-3-(2-Thienyl)acryloylamino)ethyl)-2-methoxyphenyisulfonyl]-3-isopropyl-thiourea] | – | – | – | 96
CNC(=S)NS(=O)(=O)c1cc(CCNC(=O)/C=C/c2cccs2)ccc1OCCOC [Example 6, 1-[5-(2-(trans-3-(2-Thienyl)acryloylamino)ethyl)-2-(2-methoxyethoxy)phenylsulfonyl]-3-methyl-thiourea] | – | – | – | 152
CNC(=O)NS(=O)(=O)c1cc(CCNC(=O)/C=C/c2cccs2)ccc1OCCOC [Example 7, 1-[5-(2-(trans-3-(2-Thienyl)acryloylamino)ethyl)-2-(2-methoxyethoxy)phenylsulfonyl]-3-methyl-urea] | 8.1 | 39 | 80 | –
COCCOc1ccc(CCNC(=O)/C=C/c2cccs2)cc1S(=O)(=O)NC(=S)NC(C)C [Example 8, 1-[5-(2-(trans-3-(2-Thienyl)acryloylamino)ethyl)-2-(2-methoxyethoxy)phenylsulfonyl]-3-isopropyl-thiourea] | – | – | – | 101
CCOc1ccc(CCNC(=O)/C=C/c2cccs2)cc1S(=O)(=O)NC(=S)NC [Example 9, 1-[5-(2-(trans-3-(2-Thienyl)acryloylamino)ethyl)-2-ethoxyphenylsulfonyl]-3-methyl-thiourea] | – | – | – | 74
CCOCCOc1ccc(CCNC(=O)/C=C/c2cccs2)cc1S(=O)(=O)NC(=S)NC [Example 10, 1-[5-(2-(trans-3-(2-Thienyl)acryloylamino)ethyl)-2-(2-ethoxyethoxy)phenylsulfonyl]-3-methyl-thiourea] | – | 50 | – | –
CCOCCOc1ccc(CCNC(=O)/C=C/c2cccs2)cc1S(=O)(=O)NC(=O)NC [Example 11, 1-[5-(2-(trans-3-(2-Thienyl)acryloylamino)ethyl)-2-(2-ethoxyethoxy)phenylsulfonyl]-3-methyl-urea] | – | – | – | 65
CNC(=S)NS(=O)(=O)c1cc(CCNC(=O)/C=C/c2cccs2)ccc1OCC1CCCO1 (stereo not drawn) [Example 14, 1-[5-(2-(trans-3-(2-Thienyl)acryloylamino)ethyl)-2-(tetrahydrofuran-2-ylmethoxy)phenylsulfonyl]-3-methyl-thiourea] | – | – | – | 78
CNC(=S)NS(=O)(=O)c1cc(CCNC(=O)/C=C/c2cccs2)ccc1OCC1CCCCO1 (stereo not drawn) [Example 15, 1-[5-(2-(trans-3-(2-Thienyl)acryloylamino)ethyl)-2-(tetrahydropyran-2-ylmethoxy)phenylsulfonyl]-3-methyl-thiourea] | – | – | – | 80
CNC(=S)NS(=O)(=O)c1cc(CCNC(=O)/C=C/c2cccs2)ccc1OCCOC(F)(F)F [Example 16, 1-[5-(2-(trans-3-(2-Thienyl)acryloylamino)ethyl)-2-(2-(trifluoromethoxy)ethoxy)phenylsulfonyl]-3-methyl-thiourea] | – | – | – | 161 to 163
CNC(=S)NS(=O)(=O)c1cc(CCNC(=O)/C=C/c2cccs2)ccc1-c1ccco1 [Example 17, 1-[5-(2-(trans-3-(2-Thienyl)acryloylamino)ethyl)-2-(2-furyl)phenylsulfonyl]-3-methyl-thiourea] | – | – | – | 175 to 176
CNC(=S)NS(=O)(=O)c1cc(CCNC(=O)/C=C/c2ccccn2)ccc1OC [Example 18, 1-[5-(2-(trans-3-(2-Pyridyl)acryloylamino)ethyl)-2-methoxyphenylsulfonyl]-3-methyl-thiourea] | – | – | – | 188
COCCOc1ccc(CCNC(=O)/C=C/c2ccccn2)cc1S(=O)(=O)NC(=S)NC(C)C [Example 20, 1-[5-(2-(trans-3-(2-Pyridyl)acryloylamino)ethyl)-2-(2-methoxyethoxy)phenylsulfonyl]-3-isopropyl-thiourea] | 5.9 | 26 | 80 | –
